Data taken from patent publication US20200405868A1, “GEL-FORMING POLYPEPTIDES” (priority 2018, published 2020).
The star is where a group is joined. Palmitoyl = CCCCCCCCCCCCCCCC(=O)*

Test: Compound gel-forming ability in water (visual inspection, tube tapping assay, tilted tube assay);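 note: peptides mixed with de-ionized water at about 22-25 °C, judged after 20 min by eye plus tube tapping (10 taps, moves counted) and 90° tilt mobility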
Format: physicochemical
Conditions: for gel formation in aqueous solution, 6% / gel formation in aqueous solution, 11% / gel formation in aqueous solution, 20% / gel formation in aqueous solution, 3%: Table 3; for gel formation in aqueous solution, 6% / propensity to form gels, chimeric or mutated polypeptides, 6%: 6% w/w; for propensity to form gels, chimeric or mutated polypeptides, 6% / propensity to form gels, chimeric or mutated polypeptides, 11% / propensity to form gels, chimeric or mutated polypeptides, 20% / propensity to form gels, chimeric or mutated polypeptides, 3%: Table 5; for gel formation in aqueous solution, 11% / propensity to form gels, chimeric or mutated polypeptides, 11%: 11% w/w; for gel formation in aqueous solution, 20% / propensity to form gels, chimeric or mutated polypeptides, 20%: 20% w/w; for gel formation at 6% w/w: 6% w/w in water; for gel formation at 11% w/w: 11% w/w in water; for propensity to form gels, chimeric or mutated polypeptides, 3% / gel formation in aqueous solution, 3%: 3% w/w; for Physical property at 11% w/w: Table 2, 11% w/w in aqueous solution, room temperature
Procedure: Determination of Compound Gel-forming Ability in Water: To determine the solubility of polypeptides at room temperature, 1, 2, 3, 4, 5, 20, or 100 mg of a selected peptide is weighed and deposited into a clear plastic or glass vial and an aliquot of de-ionized water was then added to the vial. The procedure takes place in a room which is maintained at approximately 22-25° C. […] Insoluble peptides sample retained the particles or paste-like characteristics after 20 min of reaction. In addition to visual inspection, we performed a tube tapping assay and a tilted tube assay to differentiate the gelling status of peptide solutions.
To determine the solubility of polypeptides at room temperature, 1, 2, 3, 4, 5, 20, or 100 mg of a selected peptide is weighed and deposited into a clear plastic vial and an aliquot of de-ionized water was then added to the vial. The procedure takes place in a room which is maintained at approximately 22-25° C. Polypeptide sample which is considered soluble dissolves instantly in water and stays as a clear solution without obvious macroscopic change in viscosity at 20 min after mixing with water. […] If macroscopic particles of peptides remain in the solution at 20 min after mixing with water, the peptide is considered insoluble or precipitated at the given concentration. In this case, the quality of peptides is further judged by two other criteria: (1) mobility following a tapping of the tube (tube tapping assay) and (2) mobility flowing tilting the tube by 900 (tilted tube assay). In the first assay, the tube is tapped with the finger for 10 times, and the number of times that the body of the solution changes position is recorded. An aqueous solution such as water will have a score of 9 or 10 in this assay; meaning that the body of the liquid moves every time when one taps the tube. […] Those with moderate viscosity form liquid gel that changes the conformation slowly when the container tube is tapped with a finger or tilted. […] If macroscopic change in the position of the body of gel was observed 5-9 time out of 10 separate tapping tests, the gel is considered a liquid gel. The high viscosity of a liquid gel is further confirmed using the tilted tube assay. […] If the liquid or gel body takes more than 15 seconds to flow to the bottom of the tilted tube, the resulting aqueous mass is considered a liquid gel.
To allow systematic analysis of the gel-forming ability, the assay was first conducted at a peptide concentration of 11% w/w in aqueous solution. The peptides analyzed included functional regulators of cell surface receptors, enzymes, complement factors, antimicrobial peptides, immunomodulators, therapeutic peptides, cell-penetrating peptide, antigens, matrikines, and analogs of CGRP, adrenomedullin and adenomedullin 2 (or intermedin).

gel formation in aqueous solution, 11% | gel formation at 6% w/w | Substance | propensity to form gels, chimeric or mutated polypeptides, 11% | Physical property at 11% w/w | also measured
 |  | Pal-HSYGTFTSDVSSYLEGQAAKEFIAWLVKGR-NH2 (Palmitoyl-HSYGTFTSDVSSYLEGQAAKEFIAWLVKGR-NH2; SMILES CCCCCCCCCCCCCCCC(=O)N[C@@H](Cc1c[nH]cn1)C(=O)N[C@@H](CO)C(=O)N[C@@H](Cc1ccc(O)cc1)C(=O)NCC(=O)N[C@H](C(=O)N[C@@H](Cc1ccccc1)C(=O)N[C@H](C(=O)N[C@@H](CO)C(=O)N[C@@H](CC(=O)O)C(=O)N[C@H](C(=O)N[C@@H](CO)C(=O)N[C@@H](CO)C(=O)N[C@@H](Cc1ccc(O)cc1)C(=O)N[C@@H](CC(C)C)C(=O)N[C@@H](CCC(=O)O)C(=O)NCC(=O)N[C@@H](CCC(N)=O)C(=O)N[C@@H](C)C(=O)N[C@@H](C)C(=O)N[C@@H](CCCCN)C(=O)N[C@@H](CCC(=O)O)C(=O)N[C@@H](Cc1ccccc1)C(=O)N[C@H](C(=O)N[C@@H](C)C(=O)N[C@@H](Cc1c[nH]c2ccccc12)C(=O)N[C@@H](CC(C)C)C(=O)N[C@H](C(=O)N[C@@H](CCCCN)C(=O)NCC(=O)N[C@@H](CCCNC(=N)N)C(N)=O)C(C)C)[C@@H](C)CC)C(C)C)[C@@H](C)O)[C@@H](C)O) [SEQ ID NO:221] |  |  | gel formation in aqueous solution, 6%: SS (SS for semisolid gel); propensity to form gels, chimeric or mutated polypeptides, 6%: SS (An ability to form semisolid gel is represented by an SS)
SS (SS for semisolid gel) |  | Pal-HSYH-(D-Phe)-RWGKPV-NH2 [SEQ ID NO:273] | SS (An ability to form semisolid gel is represented by an SS) |  | gel formation in aqueous solution, 20%: SS (SS for semisolid gel); propensity to form gels, chimeric or mutated polypeptides, 20%: SS (An ability to form semisolid gel is represented by an SS)
SS (SS for semisolid gel) | liquid gel | Pal-HSYKRPPGFS-(DβNal)-Ile-NH2 [SEQ ID NO:261] | SS (An ability to form semisolid gel is represented by an SS) |  | gel formation at 11% w/w: semisolid gel; propensity to form gels, chimeric or mutated polypeptides, 3%: AS/IS
 |  | Pal-HSYRPKPQQFF-Sar-L-Met-(02)-NH2 [SEQ ID NO:254] |  |  | gel formation in aqueous solution, 20%: SS (SS for semisolid gel); propensity to form gels, chimeric or mutated polypeptides, 20%: SS (An ability to form semisolid gel is represented by an SS)
 | liquid gel | Pal-HSYVMGHFRWDRF-NH2 [SEQ ID NO:260] |  |  | 
 |  | Pal-KPSSPHSY-NH2 (Palmitoyl-KPSSPHSY-NH2; SMILES CCCCCCCCCCCCCCCC(=O)N[C@@H](CCCCN)C(=O)N1CCC[C@H]1C(=O)N[C@@H](CO)C(=O)N[C@@H](CO)C(=O)N1CCC[C@H]1C(=O)N[C@@H](Cc1c[nH]cn1)C(=O)N[C@@H](CO)C(=O)N[C@@H](Cc1ccc(O)cc1)C(N)=O) [SEQ ID NO:118] |  | SS (SS for semisolid gel) | 
 |  | Pal-KSY-NH2 [SEQ ID NO:121] |  | SS (SS for semisolid gel) | 
 |  | Pal-KVQKLAHQIYQFTD(Aib)DSAPVDPSSPHSY-NH2 [SEQ ID NO:124] |  | SS (SS for semisolid gel) | 
 |  | Pal-KVQKLAHQIYQFTDK(Aib)SAPVDPSSPHSY-NH2 [SEQ ID NO:125] |  | AS/IS (AS/IS for aqueous solution or insoluble) | 
 |  | Pal-KVQKLAHQIYQFTDKD(Aib)APVDPSSPHSY-NH2 [SEQ ID NO:126] |  | SS (SS for semisolid gel) | 
 |  | Pal-KVQKLAHQSAPVDPSSPHSY-NH2 [SEQ ID NO:105] |  | AS/IS (AS/IS for aqueous solution or insoluble) | 
 |  | Pal-KVQKLNFVPTNVGSKAF-NH2 [SEQ ID NO:135] |  | AS/IS (AS/IS for aqueous solution or insoluble) | 
 |  | Pal-KVQKLNFVPTNVGSKAY-NH2 (Palmitoyl-KVQKLNFVPTNVGSKAY-NH2; SMILES CCCCCCCCCCCCCCCC(=O)N[C@@H](CCCCN)C(=O)N[C@H](C(=O)N[C@@H](CCC(N)=O)C(=O)N[C@@H](CCCCN)C(=O)N[C@@H](CC(C)C)C(=O)N[C@@H](CC(N)=O)C(=O)N[C@@H](Cc1ccccc1)C(=O)N[C@H](C(=O)N1CCC[C@H]1C(=O)N[C@H](C(=O)N[C@@H](CC(N)=O)C(=O)N[C@H](C(=O)NCC(=O)N[C@@H](CO)C(=O)N[C@@H](CCCCN)C(=O)N[C@@H](C)C(=O)N[C@@H](Cc1ccc(O)cc1)C(N)=O)C(C)C)[C@@H](C)O)C(C)C)C(C)C) [SEQ ID NO:139] |  | SS (SS for semisolid gel) | 
SS (SS for semisolid gel) | liquid gel | Pal-KVQKLSAPVDPSSPHSY-miniPEG-CSNLSTCVLGKLSQELHKLQTYPRTNTGSGTP-NH2 [SEQ ID NO:217] | SS (An ability to form semisolid gel is represented by an SS) |  | gel formation at 11% w/w: semisolid gel
SS (SS for semisolid gel) | semisolid gel | Pal-KVQKLSAPVDPSSPHSY-miniPEG-CYFQNCPRG-NH2 [SEQ ID NO:204] | SS (An ability to form semisolid gel is represented by an SS) |  | gel formation at 11% w/w: semisolid gel; gel formation in aqueous solution, 6%: SS (SS for semisolid gel); propensity to form gels, chimeric or mutated polypeptides, 6%: SS (An ability to form semisolid gel is represented by an SS)
SS (SS for semisolid gel) | liquid gel | Pal-KVQKLSAPVDPSSPHSY-miniPEG-CYIQNCPLG-NH2 [SEQ ID NO:205] | SS (An ability to form semisolid gel is represented by an SS) |  | gel formation at 11% w/w: semisolid gel
SS (SS for semisolid gel) |  | Pal-KVQKLSAPVDPSSPHSY-miniPEG-HAEGTFTSDVSSYLEGQAAKEFIAWLVKGR-NH2 [SEQ ID NO:220] | SS (An ability to form semisolid gel is represented by an SS) |  | 

Substance | gel formation in aqueous solution, 11% | gel formation at 6% w/w | propensity to form gels, chimeric or mutated polypeptides, 11% | Physical property at 11% w/w | also measured
Pal-HSYSLDVPIGLLQILLEQARARAAREQATTNARILARVGHC-NH2 [SEQ ID NO:265] | AS/IS (AS/IS for aqueous solution or insoluble) |  | AS/IS |  | gel formation at 20% w/w (20% w/w in water): semisolid or liquid gel
Pal-KVQKLSAPVDPSSPHSY-miniPEG-(D-Tyr)QWAV(β-Ala)HF(Nle)-NH2 [SEQ ID NO:209] | SS (SS for semisolid gel) |  | SS (An ability to form semisolid gel is represented by an SS) |  | gel formation in aqueous solution, 3%: SS (SS for semisolid gel); gel formation in aqueous solution, 6%: SS (SS for semisolid gel); propensity to form gels, chimeric or mutated polypeptides, 3%: SS (An ability to form semisolid gel is represented by an SS); propensity to form gels, chimeric or mutated polypeptides, 6%: SS (An ability to form semisolid gel is represented by an SS)
Pal-KVQKLSAPVDPSSPHSY-miniPEG-EHWSY-(D-2Nal)-LRPG-NH2 [SEQ ID NO:201] | SS (SS for semisolid gel) | semisolid gel | SS (An ability to form semisolid gel is represented by an SS) |  | gel formation at 3% w/w (3% w/w in water): semisolid gel; gel formation at 11% w/w: semisolid gel; gel formation in aqueous solution, 3%: SS (SS for semisolid gel); gel formation in aqueous solution, 6%: SS (SS for semisolid gel); propensity to form gels, chimeric or mutated polypeptides, 3%: SS (An ability to form semisolid gel is represented by an SS); propensity to form gels, chimeric or mutated polypeptides, 6%: SS (An ability to form semisolid gel is represented by an SS)
